From patent publication US20210387966A1, “2-AMINO-N-HETEROARYL-NICOTINAMIDES AS NAV1.8 INHIBITORS” (Merck Sharp & Dohme Corp., priority 2018, published 2021)

Target: T1, human Nav1.8 channels (Homo sapiens, UniProt Q9Y5Y9)
T1 construct: expressed in transfected cells
Assay: Nav1.8 Qube automated patch-clamp assay
Type: cell-based
Settings: human Nav1.8 stably expressed in HEK 293 cells; whole-cell voltage clamp, room temperature; resting or inactivated state not specified; read-out: IC50 values (nM) for Examples in the Nav1.8 Qube Assay
Summary of the method: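 Whole-cell patch clamp at room temperature on HEK293 cells stably expressing human Nav1.8. A 1 Hz train of ten 20 ms pulses to 10 mV from −90 mV holding, with −67 mV repolarization, was applied; first- and tenth-pulse peak currents gave resting and inactivated-state IC50s by Hill fitting.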

T1 sequence (Q9Y5Y9 whole entry): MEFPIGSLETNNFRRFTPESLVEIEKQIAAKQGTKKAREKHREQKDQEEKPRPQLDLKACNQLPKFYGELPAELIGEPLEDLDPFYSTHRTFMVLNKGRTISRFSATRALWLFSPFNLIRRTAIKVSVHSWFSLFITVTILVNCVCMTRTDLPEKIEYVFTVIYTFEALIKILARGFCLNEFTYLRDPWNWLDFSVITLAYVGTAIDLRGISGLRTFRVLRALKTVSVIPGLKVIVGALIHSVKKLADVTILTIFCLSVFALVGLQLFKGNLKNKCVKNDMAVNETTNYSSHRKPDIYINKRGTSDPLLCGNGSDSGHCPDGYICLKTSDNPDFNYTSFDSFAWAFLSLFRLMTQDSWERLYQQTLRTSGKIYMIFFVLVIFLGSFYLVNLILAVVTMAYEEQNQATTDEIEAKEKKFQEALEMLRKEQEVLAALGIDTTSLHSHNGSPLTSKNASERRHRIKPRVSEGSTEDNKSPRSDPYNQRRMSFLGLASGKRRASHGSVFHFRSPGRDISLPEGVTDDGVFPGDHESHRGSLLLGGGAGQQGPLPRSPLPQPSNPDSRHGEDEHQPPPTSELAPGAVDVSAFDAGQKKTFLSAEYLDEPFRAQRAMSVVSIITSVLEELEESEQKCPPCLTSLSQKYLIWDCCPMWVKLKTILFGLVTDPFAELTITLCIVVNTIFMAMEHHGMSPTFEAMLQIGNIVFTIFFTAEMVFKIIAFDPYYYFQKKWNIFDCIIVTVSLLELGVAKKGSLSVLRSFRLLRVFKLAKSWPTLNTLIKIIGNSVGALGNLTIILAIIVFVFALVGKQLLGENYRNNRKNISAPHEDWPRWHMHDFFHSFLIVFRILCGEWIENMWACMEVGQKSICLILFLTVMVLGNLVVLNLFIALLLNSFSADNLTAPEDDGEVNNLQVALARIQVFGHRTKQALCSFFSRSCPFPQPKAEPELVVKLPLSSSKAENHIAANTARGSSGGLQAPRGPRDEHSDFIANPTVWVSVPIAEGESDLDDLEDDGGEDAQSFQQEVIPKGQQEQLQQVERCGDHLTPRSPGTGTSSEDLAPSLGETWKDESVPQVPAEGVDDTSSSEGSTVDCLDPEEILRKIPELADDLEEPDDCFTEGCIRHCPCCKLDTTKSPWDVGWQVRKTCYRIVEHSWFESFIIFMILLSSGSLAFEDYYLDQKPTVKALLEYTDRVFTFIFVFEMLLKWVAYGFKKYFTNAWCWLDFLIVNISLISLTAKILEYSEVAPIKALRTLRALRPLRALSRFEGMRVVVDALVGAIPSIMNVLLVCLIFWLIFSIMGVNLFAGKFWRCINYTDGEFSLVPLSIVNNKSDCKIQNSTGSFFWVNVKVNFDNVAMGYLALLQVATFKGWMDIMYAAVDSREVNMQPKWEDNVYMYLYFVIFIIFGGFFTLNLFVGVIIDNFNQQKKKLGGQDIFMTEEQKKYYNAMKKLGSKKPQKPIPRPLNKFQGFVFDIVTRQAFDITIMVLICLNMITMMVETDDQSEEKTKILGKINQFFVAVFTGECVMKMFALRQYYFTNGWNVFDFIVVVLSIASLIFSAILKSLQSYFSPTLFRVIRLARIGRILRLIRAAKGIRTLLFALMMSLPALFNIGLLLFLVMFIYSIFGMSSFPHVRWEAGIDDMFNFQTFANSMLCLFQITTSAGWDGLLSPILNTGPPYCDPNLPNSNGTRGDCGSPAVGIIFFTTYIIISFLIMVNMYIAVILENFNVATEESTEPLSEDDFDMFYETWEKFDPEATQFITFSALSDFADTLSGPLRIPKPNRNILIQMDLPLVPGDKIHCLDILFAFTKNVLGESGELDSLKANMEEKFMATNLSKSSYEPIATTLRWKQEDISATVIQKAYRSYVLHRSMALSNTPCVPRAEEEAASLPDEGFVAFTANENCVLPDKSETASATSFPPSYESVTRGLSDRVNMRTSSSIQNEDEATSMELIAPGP

IC50 [nM]	SMILES
55	NS(=O)(=O)c1cc(NC(=O)c2cc(Br)cnc2N2CCC(F)(F)CC2)ccn1 [Example 204, 5-bromo-2-(4,4-difluoropiperidin-1-yl)-N-(2-sulfamoylpyridin-4-yl)nicotinamide]
20	NS(=O)(=O)c1cc(NC(=O)c2cc(C(F)(F)F)cnc2N2C[C@H]3CC[C@@H](C2)C3(F)F)ccn1 [Example 63, 2-((1R,5S)-8,8-difluoro-3-azabicyclo[3.2.1]octan-3-yl)-N-(2-sulfamoylpyridin-4-yl)-5-(trifluoromethyl)nicotinamide]
289	CC(C)(C)NS(=O)(=O)c1cc(NC(=O)c2cc(Cl)cnc2N2CCCC(F)(F)CC2)ccn1 [Example 109, N-[2-(tert-butylsulfamoyl)-4-pyridyl]-5-chloro-2-(4,4-difluoroazepan-1-yl)pyridine-3-carboxamide]
1790	N#Cc1noc(NC(=O)c2cc(C(F)(F)F)cnc2N2CCCCCC2)n1 [Example 45, 2-(azepan-1-yl)-N-(3-cyano-1,2,4-oxadiazol-5-yl)-5-(trifluoromethyl)pyridine-3-carboxamide]
31	CC1CCCN(c2ncc(C(F)(F)F)cc2C(=O)Nc2ccnc(S(N)(=O)=O)c2)C1 (single isomer, unassigned) [Example 57, (R or S)-2-(3-methylpiperidin-1-yl)-N-(2-sulfamoylpyridin-4-yl)-5-(trifluoromethyl)nicotinamide]
155	CS(=O)(=O)c1cc(NC(=O)c2cc(C(F)(F)F)cnc2N2C[C@H]3CC[C@H]3C2)ccn1 [Example 152, 2-[(1R,5S)-3-azabicyclo[3.2.0]heptan-3-yl]-N-(2-methylsulfonyl-4-pyridyl)-5-(trifluoro-methyl)pyridine-3-carboxamide]
2.1	Cc1nc(N2CCC(F)(F)C(C)C2)c(C(=O)Nc2ccnc(S(N)(=O)=O)c2)cc1Cl (single isomer, unassigned) [Example 54, (S or R)-5-chloro-2-(4,4-difluoro-3-methylpiperidin-1-yl)-6-methyl-N-(2-sulfamoylpyridin-4-yl)nicotinamide]
56	NS(=O)(=O)c1cc(NC(=O)c2cc(C(F)(F)F)cnc2N2CCCO[C@H](C(F)(F)F)C2)ccn1 [Example 104, (S)-N-(2-sulfamoylpyridin-4-yl)-5-(trifluoromethyl)-2-(2-(trifluoromethyl)-1,4-oxazepan-4-yl)nicotinamide]
18	Cc1nc(N2CCOC(C(F)F)CC2)c(C(=O)Nc2ccnc(S(N)(=O)=O)c2)cc1Cl (single isomer, unassigned) [Example 117, 5-chloro-2-[(7S or 7R)-7-(difluoromethyl)-1,4-oxazepan-4-yl]-6-methyl-N-(2-sulfamoylpyridin-4-yl)pyridine-3-carboxamide]
88	NS(=O)(=O)c1cc(NC(=O)c2cc(C(F)(F)F)cnc2N2CCCC3(C2)CC3(F)F)ccn1 (single isomer, unassigned) [Example 66, (R of S)-2-(1,1-difluoro-5-azaspiro[2.5]octan-5-yl)-N-(2-sulfamoylpyridin-4-yl)-5-(trifluoromethyl)nicotinamide]
35	Cc1nc(N2CCCC(F)(F)CC2)c(C(=O)Nc2cnn(S(=O)(=O)CCN)c2)cc1Cl [Example 33, N-{1-[(2-aminoethyl)sulfonyl]-1H-pyrazol-4-yl}-5-chloro-2-(4,4-difluoroazepan-1-yl)-6-methylpyridine-3-carboxamide]
244	N#Cc1cc(NC(=O)c2cc(C(F)(F)F)cnc2N2CCCCCC2)ccn1 [Example 197, 2-(azepan-1-yl)-N-(2-cyano-4-pyridyl)-5-(tri-fluoromethyl)pyridine-3-carboxamide]
4.1	Cc1nc(N2CCCC(F)(F)CC2)c(C(=O)Nc2cnn(S(C)(=O)=O)c2)cc1Cl [Example 31, 5-chloro-2-(4,4-difluoroazepan-1-yl)-6-methyl-N-[1-(methylsulfonyl)-1H-pyrazol-4-yl]pyridine-3-carboxamide]
86	O=C(Nc1cc[nH]c(=O)c1)c1cc(C(F)(F)F)cnc1N1CCCC(F)(F)CC1 [Example 210, 2-(4,4-difluoroazepan-1-yl)-N-(2-oxo-1,2-dihydropyridin-4-yl)-5-(trifluoromethyl)-nicotinamide]
25	NS(=O)(=O)c1cc(NC(=O)c2cc(C(F)(F)F)cnc2N2CCCC3(C2)CC3(F)F)ccn1 (single isomer, unassigned) [Example 67, (S or R)-2-(1,1-difluoro-5-azaspiro[2.5]octan-5-yl)-N-(2-sulfamoylpyridin-4-yl)-5-(trifluoromethyl)nicotinamide]
9330	CC1(C)c2cc(F)ccc2CN1c1ncc(C(F)(F)F)cc1C(=O)Nc1ccnc(S(N)(=O)=O)c1 [Example 113, 2-(6-fluoro-1,1-dimethyl-isoindolin-2-yl)-N-(2-sulfamoyl-4-pyridyl)-5-(trifluoromethyl)pyridine-3-carboxamide]
5190	O=C(Nc1cncc(CO)c1)c1cc(C(F)(F)F)cnc1N1CCCCCC1 [Example 196, 2-(azepan-1-yl)-N-[5-(hydroxymethyl)-3-pyridyl]-5-(trifluoro-methyl)pyridine-3-carboxamide]
294	NS(=O)(=O)c1cc(NC(=O)c2cc(C(F)(F)F)cnc2N2Cc3cccc(OC(F)(F)F)c3C2)ccn1 [Example 90, N-(2-sulfamoyl-4-pyridyl)-2-[4-(trifluoromethoxy)isoindolin-2-yl]-5-(trifluoromethyl)pyridine-3-carboxamide]
616	NS(=O)(=O)c1cc(NC(=O)c2cc(C(F)(F)F)cnc2N2CCOC(c3ccc(C(F)(F)F)cc3)C2)ccn1 (stereo not drawn) [Example 91, N-(2-sulfamoyl-4-pyridyl)-5-(trifluoromethyl)-2-[2-[4-(trifluoromethyl)phenyl]morpholin-4-yl]pyridine-3-carboxamide]
714	NS(=O)(=O)c1cc(NC(=O)c2cc(C(F)(F)F)cnc2N2CC3CC2CC3(F)F)ccn1 (single isomer, unassigned) [Example 72, 2-[(1S,4S or 1R,4R)-5,5-difluoro-2-azabicyclo[2.2.1]heptan-2-yl]-N-(2-sulfamoyl-4-pyridyl)-5-(trifluoromethyl)pyridine-3-carboxamide]
5.9	Cc1nc(N2CCCCCC2)c(C(=O)Nc2cncc(S(N)(=O)=O)c2)c(C)c1Cl [Example 188, 2-(azepan-1-yl)-5-chloro-4,6-dimethyl-N-(5-sulfamoyl-3-pyridyl)pyridine-3-carboxamide]
1860	NS(=O)(=O)c1cc(NC(=O)c2cccnc2N2CCC(F)(F)CC2)ccn1 [Example 26, 2-(4,4-difluoropiperidin-1-yl)-N-(2-sulfamoylpyridin-4-yl)nicotinamide]
570	O=C(Nc1cc[nH]c(=O)c1)c1cc(C(F)(F)F)cnc1N1CCCCCC1 [Example 212, 2-(azepan-1-yl)-N-(2-oxo-1,2-dihydropyridin-4-yl)-5-(trifluoromethyl)nicotinamide]

SMILES	IC50 [nM]
NS(=O)(=O)c1cc(NC(=O)c2cc(C(F)(F)F)cnc2N2C[C@H]3C[C@@H](C2)C3(F)F)ccn1 [Example 76, 2-((1R,5S)-6,6-difluoro-3-azabicyclo[3.1.1]heptan-3-yl)-N-(2-sulfamoylpyridin-4-yl)-5-(trifluoromethyl)nicotinamide]	389
